17 compounds from patent publication US8399465B2, “Compounds with two fused bicyclic heteroaryl moieties as modulators of leukotriene A4 hydrolase” (Janssen Pharmaceutica NV, priority 2009, dated 2013) can be followed below.

One may read the IC50 as the concentration at which inhibition is half-maximal.

Where a name gives a salt, the structure may show the parent alone. Read-outs that look alike come from different tables or passages of the source.

The subject of experiment [1] is LTB4 production in murine blood (LTA4H). The experiment is described as follows: LTB4 production by calcium ionophore-stimulated murine blood for LTA4H inhibitor activity. Type of experiment: cell-based, CD-1 mice. Conditions: Mus musculus; murine blood diluted 1 in 15, A23187 stimulated; single determination or average; mark after value = form tested: ′ free base, ″ hydrochloride, ^ formate; read-out: IC50. The procedure, abridged:
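LTB4 was measured by ELISA in supernatants after calcium ionophore A23187 stimulation (final 7 μg/mL, 30 min, 37° C) of CD-1 mouse blood collected on heparin. Compound was preincubated with the blood for 15 min beforehand. Values come from one determination or average several.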

For experiment [2], the target named is T1, recombinant human LTA4 hydrolase (rhLTA4H) (Homo sapiens, UniProt P09960).
T1 construct: made in house; host or cells: Spodoptera frugiperda (Sf-9) cells, baculovirus (pFastBac1)
T1 sequence (P09960 1-611): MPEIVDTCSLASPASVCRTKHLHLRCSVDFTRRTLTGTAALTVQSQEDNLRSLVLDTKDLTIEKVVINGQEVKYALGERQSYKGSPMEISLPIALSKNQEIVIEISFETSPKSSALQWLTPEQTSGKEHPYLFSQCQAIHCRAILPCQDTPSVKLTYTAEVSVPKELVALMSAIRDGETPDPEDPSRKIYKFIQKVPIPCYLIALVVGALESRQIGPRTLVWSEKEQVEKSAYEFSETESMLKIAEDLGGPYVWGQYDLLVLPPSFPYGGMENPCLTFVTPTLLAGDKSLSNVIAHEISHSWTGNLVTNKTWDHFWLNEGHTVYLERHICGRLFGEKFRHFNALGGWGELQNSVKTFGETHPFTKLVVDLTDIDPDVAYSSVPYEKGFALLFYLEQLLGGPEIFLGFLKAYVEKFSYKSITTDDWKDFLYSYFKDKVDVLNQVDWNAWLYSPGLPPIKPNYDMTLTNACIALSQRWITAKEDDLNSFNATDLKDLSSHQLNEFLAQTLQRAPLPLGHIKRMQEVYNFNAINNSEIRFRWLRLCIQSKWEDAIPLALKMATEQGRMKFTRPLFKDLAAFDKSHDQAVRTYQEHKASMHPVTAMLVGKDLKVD
The experiment is described as follows: Recombinant human LTA4 hydrolase assay for LTA4 hydrolase inhibitor activity. Type of experiment: biochemical. The gist of the method: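 LTB4 formation, measured by enzyme immunoassay, was the read-out. The enzyme, recombinant human LTA4H expressed in Sf-9 insect cells (10 ng per reaction), was exposed to compound for 10 min at room temperature before hydrolysed-ester LTA4 substrate was added for 30 min. Enzyme-free negatives were included.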

Experiment [3] relates to arachidonic acid-induced neutrophil influx in murine ear tissue. Briefly: Murine arachidonic acid-induced inflammation model: neutrophil influx (myeloperoxidase) in ear. Type of experiment: in vivo, Balb/c mice. Conditions: Mus musculus, read-out: % Inh. MPO.
Experiment [4] relates to ex vivo calcium ionophore-stimulated LTB4 production in whole blood. The experiment is described as follows: Murine arachidonic acid-induced inflammation model: ex vivo stimulated LTB4 production in blood. The arrangement: species or system Balb/c mice. Conditions: Mus musculus; 30 mg/kg oral gavage; blood diluted 1:1, A23187 stimulated ex vivo; percent inhibition of LTB4 production; read-out: % Inh. LTB4.

Where [5] appears, read: rhLTA4H, LTB4 by immunoassay, single determination or average of two or more, mark after value = form tested: ′ free base, ″ hydrochloride, ^ formate, read-out: IC50.
Setting [6] is: 30 mg/kg oral gavage, 60 min before topical arachidonic acid, ear biopsy after 3 h, percent inhibition of neutrophil influx.

In the case of `CC(=O)N[C@H]1C[C@@H]2C[C@H]1CN2Cc1cc2cc(Oc3nc4ncccc4s3)ccc2o1` [Example 188, (1S,4S,5S)—N-{2-[5-(Thiazolo[4,5-b]pyridin-2-yloxy)-benzofuran-2-ylmethyl]-2-aza-bicyclo[2.2.1]hept-5-yl}-acetamide], the results for the IC50 in experiment [1] and in experiment [2] (setting [5]) were 63 nM and 26 nM, respectively. Moreover, the inhibition at 30 mg/kg in experiment [3] (setting [6]) was determined as 78%; in experiment [4] it was 73%.
As to `CC(=O)N[C@@H]1C[C@H]2CC[C@@H](C1)N2Cc1coc2cc(Oc3nc4ncccc4s3)ccc12` [Example 208, meso-exo-N-{8-[6-(Thiazolo[4,5-b]pyridin-2-yloxy)-benzofuran-3-ylmethyl]-8-aza-bicyclo[3.2.1]oct-3-yl}-acetamide], the IC50 in experiment [1] came out at 24 nM; in experiment [2], 1 nM. The inhibition at 30 mg/kg in experiment [3] (setting [6]) turned out to be 92%; in experiment [4], 93%.
As for `NC(=O)N1C[C@@H]2C[C@H]1CN2Cc1coc2cc(Oc3nc4ncccc4s3)ccc12` [Example 209, (1S,4S)-5-[6-(Thiazolo[4,5-b]pyridin-2-yloxy)-benzofuran-3-ylmethyl]-2,5-diaza-bicyclo[2.2.1]heptane-2-carboxylic acid amide formate], the values for the IC50 in experiment [1] and in experiment [2] (setting [5]) were 54 nM and 53 nM, respectively. Also, the inhibition at 30 mg/kg in experiment [3] (Neutrophil) was 82%; in experiment [4], 68%.
As for `OCC1CCN(Cc2coc3cc(Oc4nc5ncccc5s4)ccc23)CC1` [Example 269, {1-[6-(Thiazolo[4,5-b]pyridin-2-yloxy)-benzofuran-3-ylmethyl]-piperidin-4-yl}-methanol], the IC50 in experiment [1] came to 12 nM; in experiment [2] (setting [5]), 4 nM. The values for the inhibition at 30 mg/kg in experiment [3] (setting [6]) and in experiment [4] were 92% and 74%, respectively.
For `CC(=O)N1C[C@@H]2CC[C@H]1CN2Cc1cc2cc(Oc3nc4ncccc4s3)ccc2o1` [Example 169, meso-1-{5-[5-(Thiazolo[4,5-b]pyridin-2-yloxy)-benzofuran-2-ylmethyl]-2,5-diaza-bicyclo[2.2.2]oct-2-yl}-ethanone], in that order: 23 nM, 3 nM, 92% and 85%.
For `O=C(O)C1CCN(Cc2cc3cc(Oc4nc5ccccc5s4)ccc3o2)CC1` [Example 76, 1-[5-(Benzothiazol-2-yloxy)-benzofuran-2-ylmethyl]-piperidine-4-carboxylic acid], the IC50 in experiment [1] stood at 48 nM; in experiment [2] (setting [5]), 28 nM. Also, the values for the inhibition at 30 mg/kg in experiment [3] (setting [6]) and in experiment [4] were 89% and 85%, respectively.
Turning to `CC(=O)N1CC2CN(Cc3cc4cc(Oc5nc6ncccc6s5)ccc4o3)CC2C1` (centres unmarked) [Example 90, 1-{5-[5-(Thiazolo[4,5-b]pyridin-2-yloxy)-benzofuran-2-ylmethyl]-hexahydro-pyrrolo[3,4-c]pyrrol-2-yl}-ethanone], the half-inhibitory concentration (IC50) in experiment [1] turned out to be 22 nM; in experiment [2] (setting [5]), 35 nM. Also, the inhibition at 30 mg/kg in experiment [3] (setting [6]) is 50%; in experiment [4], 61%.
For the compound `CC(=O)N1C[C@@H]2C[C@H]1CN2CCc1coc2cc(Oc3nc4ncccc4s3)ccc12` [Example 258, (1S,4S)-1-(5-{2-[6-(Thiazolo[4,5-b]pyridin-2-yloxy)-benzofuran-3-yl]-ethyl}-2,5-diaza-bicyclo[2.2.1]hept-2-yl)-ethanone], the concentration for half-maximal inhibition (IC50) in experiment [1] worked out at 88 nM; in experiment [2] (setting [5]), 22 nM. Also, the inhibition at 30 mg/kg in experiment [3] (setting [6]) was 72%; in experiment [4], 70.9%.
For `O=C1CCCN1C1CCN(Cc2cc3cc(Oc4nc5ncccc5s4)ccc3o2)CC1` [Example 96, 1-{1-[5-(Thiazolo[4,5-b]pyridin-2-yloxy)-benzofuran-2-ylmethyl]-piperidin-4-yl}-pyrrolidin-2-one], the figures for the IC50 in experiment [1] and in experiment [2] (setting [5]) were 110 nM and 140 nM, respectively. Besides, the inhibition at 30 mg/kg is 53% in experiment [3] (setting [6]) and 66% in experiment [4].
Regarding `c1cnc2sc(Oc3ccc4c(CN5CCOCC5)c[nH]c4c3)nc2n1` [Example 56, 2-(3-Morpholin-4-ylmethyl-1H-indol-6-yloxy)-thiazolo[4,5-b]pyrazine], the IC50 is 290 nM in experiment [1] and 81 nM in experiment [2] (setting [5]). In addition, the inhibition at 30 mg/kg is 45% in experiment [3] (setting [6]) and 40% in experiment [4].
For `CC(=O)N1C[C@H]2CC[C@@H](C1)N2Cc1cc2cc(Oc3nc4ncccc4s3)ccc2o1` [Example 93, meso-1-{8-[5-(Thiazolo[4,5-b]pyridin-2-yloxy)-benzofuran-2-ylmethyl]-3,8-diaza-bicyclo[3.2.1]oct-3-yl}-ethanone], in that order: 23 nM, 3 nM, 87% and 85%.
On to `CCN(CC)Cc1cc2ccc(Oc3nc4ncccc4s3)cc2o1` [Example 198, Diethyl-[6-(thiazolo[4,5-b]pyridin-2-yloxy)-benzofuran-2-ylmethyl]-amine formate], for which the IC50 in experiment [1] amounted to 110 nM; in experiment [2] (setting [5]) it was 11 nM. The inhibition at 30 mg/kg was 74% in experiment [3] (Neutrophil) and 80% in experiment [4].
As to `CC(C)(O)C1CCN(Cc2coc3cc(Oc4nc5ncccc5s4)ccc23)CC1` [Example 218, 2-{1-[6-(Thiazolo[4,5-b]pyridin-2-yloxy)-benzofuran-3-ylmethyl]-piperidin-4-yl}-propan-2-ol], the IC50 in experiment [1] turned out to be 53 nM; in experiment [2] (setting [5]), 5 nM. Also, the inhibition at 30 mg/kg came to 98% in experiment [3] (setting [6]) and 83% in experiment [4].
For `O=C(O)C1CCN(Cc2cc3ccc(Oc4nc5ccccc5s4)cc3o2)CC1` [Example 77, 1-[6-(Benzothiazol-2-yloxy)-benzofuran-2-ylmethyl]-piperidine-4-carboxylic acid], in that order: 30 nM, 35 nM, 77% and 85%.
For the compound `CC(=O)NC1CCN(Cc2coc3cc(Oc4nc5ncccc5s4)ccc23)CC1` [Example 197, N-{1-[6-(Thiazolo[4,5-b]pyridin-2-yloxy)-benzofuran-3-ylmethyl]-piperidin-4-yl}-acetamide formate], the IC50 in experiment [1] came out at 15 nM; in experiment [2] (setting [5]), 4 nM. The inhibition at 30 mg/kg in experiment [3] (Neutrophil) was 92%; in experiment [4], 91%.
Take `CC(=O)N1CCC2(CCN(Cc3cc4cc(Oc5nc6ncccc6s5)ccc4o3)CC2)CC1` [Example 167, 1-{9-[5-(Thiazolo[4,5-b]pyridin-2-yloxy)-benzofuran-2-ylmethyl]-3,9-diaza-spiro[5.5]undec-3-yl}-ethanone]: the IC50 in experiment [1] worked out at 220 nM; in experiment [2] (setting [5]) it was 88 nM. Also, the values for the inhibition at 30 mg/kg in experiment [3] (setting [6]) and in experiment [4] were 77% and 78%, respectively.
As to `CC(=O)N1CCCN(C(=O)c2coc3cc(Oc4nc5ncccc5s4)ccc23)CC1` [Example 372, 1-{4-[6-(Thiazolo[4,5-b]pyridin-2-yloxy)-benzofuran-3-carbonyl]-[1,4]diazepan-1-yl}-ethanone], the 50% inhibitory concentration (IC50) in experiment [1] stood at 47 nM; in experiment [2] (setting [5]), 30 nM. Moreover, the inhibition at 30 mg/kg amounted to 53% in experiment [3] (setting [6]) and 62% in experiment [4].
